These results are taken from patent publication US6281349A, “Method for nucleic acid purification using iodine” (priority 2000, dated 2001).

What all share (type): biochemical
Experiment [1] addresses T1, Micrococcal nuclease (MN) (Boehringer Mannheim) (Staphylococcus aureus, UniProt P00644).
T1 construct: purchased Boehringer Mannheim
Nature of the experiment: Residual nuclease activity test after iodine miniprep (Mg/Ca incubation, supercoiled to nicked plasmid). As to conditions: 5 micrograms MN (300 units) added to cells, 5 mM MgCl2, CaCl2, 90 minutes at 37° C. Here is the method:
(§1) Cells from 1 mL of terrific broth culture of pUC18 in NM522 (EndoI+) were resuspended in 0.2 mL of resuspension buffer (A). #1: No exogenous nuclease, #2:5 micrograms Micrococcal nuclease (MN) (300 units Boehringer Mannheim), #3:5 Units DNaseI (Promega), were added to the respective cell samples before processing for the preparation of the plasmid. After processing by the preferred embodiment Iodine miniprep procedure an aliquot of each sample was made 5 mM each in MgCl2, CaCl2 and 20 mM Tris.HCl pH 8.3. After 90 minutes at 37° C. these were electrophoresed (bottom group) together with aliquots that had not been exposed to Mg/Ca (top group) in a 1% agarose gel with SYBR green II fluorescent dye for detection of nucleic acids.

The target in experiment [2] is T2, Endonuclease I (Endo I), endogenous, E. coli NM522 (EndoI+) (Escherichia coli, UniProt P25736).
T2 construct: due to either the endogenous Endo I or to residual activity of either of the added nucleases; endogenous in cells; host or cells: E. coli NM522 (EndoI+)
T2 sequence (P25736 23-235): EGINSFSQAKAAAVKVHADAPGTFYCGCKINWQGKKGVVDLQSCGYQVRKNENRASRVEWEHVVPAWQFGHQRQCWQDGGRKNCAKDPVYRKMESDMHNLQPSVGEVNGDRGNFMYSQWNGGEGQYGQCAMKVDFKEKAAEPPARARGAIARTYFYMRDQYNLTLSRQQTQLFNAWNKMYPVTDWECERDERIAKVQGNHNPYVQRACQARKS
The description is as above. As to conditions: preferred embodiment, 5 mM MgCl2, CaCl2, 90 minutes at 37° C., no exogenous nuclease. On the procedure:
as §1

A further experiment addresses T3, DNaseI (Promega) (Bos taurus, UniProt P00639).
T3 construct: purchased Promega
The experiment is described as above. The conditions noted are these: 5 Units DNaseI added to cells, 5 mM MgCl2, CaCl2, 90 minutes at 37° C. On the procedure:
as §1

Experiment [3] concerns the target T4, Ribonuclease A (RNAase A, pancreatic ribonuclease) (Bos taurus, UniProt P61823).
T4 sequence (P61823 27-150): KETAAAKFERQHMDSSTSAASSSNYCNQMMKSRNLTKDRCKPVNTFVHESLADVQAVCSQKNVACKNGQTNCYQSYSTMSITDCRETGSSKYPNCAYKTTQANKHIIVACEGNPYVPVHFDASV
Kind of experiment: Residual RNAase activity test of plasmids purified with or without iodine (wheat germ rRNA degradation). As to conditions: 50 mM iodine during potassium acetate precipitation, RNAase A 10 micrograms/mL in cell resuspension buffer, 37° C., 30 min. Here is the method: Plasmids were purified by two methods both using RNAase A at 10 micrograms/mL in the cell resuspension buffer. In the right hand sample 50 mM iodine was included during potassium acetate precipitation of unwanted cellular components. In the center lane iodine was not included in the potassium acetate buffer. These purified plasmid preparations, "plasmid+I2 " and "plasmid-I2 ", respectively were incubated with wheat germ RNA in a sensitive assay designed to test for the presence residual RNAase activity. Wheat germ rRNA (0.5 micrograms in 5 microlitres of resuspension buffer: Soln A) was incubated at 37° C. for 30 min either alone or with 2 microlitres of purified plasmid dissolved in Soln A. The resulting samples were electrophoresed in the presence of SYBR green II to detect the nucleic acids. The 28s and 18s components of wheat germ rRNA were not degraded when incubated with buffer alone (left channel) or with plasmids purified by the method employing RNAase A and iodine (right channel). The rRNA was degraded when incubated with plasmids purified with RNAase and without iodine (center channel).

T3 sequence (P00639 23-282): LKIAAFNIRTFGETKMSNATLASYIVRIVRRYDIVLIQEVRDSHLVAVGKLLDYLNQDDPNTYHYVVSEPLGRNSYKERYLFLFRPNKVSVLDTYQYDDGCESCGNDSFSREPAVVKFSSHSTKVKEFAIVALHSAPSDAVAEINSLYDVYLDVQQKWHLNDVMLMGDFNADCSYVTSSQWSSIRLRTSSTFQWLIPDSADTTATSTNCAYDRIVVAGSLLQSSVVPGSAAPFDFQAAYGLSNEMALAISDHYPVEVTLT

Take `II` [iodine]: the “inactivation of Micrococcal nuclease by iodine” value in experiment [1] is “lack of conversion of supercoiled plasmid (I) to nicked (II)”. For the same molecule, in experiment [2], the “inactivation of Endo I by iodine” value was “lack of conversion of supercoiled plasmid (I) to nicked (II)”. Also, at DNaseI (Promega), the “inactivation of DNaseI by iodine” value is “lack of conversion of supercoiled plasmid (I) to nicked (II)”. Besides, the “inactivation of RNase by iodine” value in experiment [3] is recorded as “effective in inactivating RNAase”.
